Literature values in patent US20020182585A1, “Combination and method using EDTA, cystine, zinc and selenium for anti-thrombin effect and for anti-platelet aggregation and measurement of efficacy” (priority 2001, published 2002).

conditions: EDTA binding of the metal cation; adapted from Schwartzenbach, 1957

SMILES	Stability Constant Log K
[Hg+2] [Hg^++]	21.8
[Ni+2] [Ni^++]	18.0
[Co+2] [Co^++]	16.3
[Cd+2] [Cd^++]	16.5
[Pb+2] [Pb^++]	18.5
